The record followed here is patent US5422352A, “Slimming pharmaceutical composition” (Nycomed Dak A/S, priority 1989, dated 1995).

Holding throughout (type): in vivo, human
Data set [1] can be described thus: weight reducing effect in obese patients, 24 weeks, double blind (Example 5). As to the method: The study was designed as a double blind, randomised, parallel study with 4 treatment groups in a 2×2 factorial design.
All patients were treated with the trial medication and prescribed a 4.2 MJ/day diet for 24 weeks.
B. Ephedrine group: Ephedrine tablets containing 20 mg ephedrine hydrochloride.
C. Caffeine group: Caffeine tablets containing 200 mg caffeine.
The patients were prescribed 1 tablet 3 times daily one hour before meals together with a 4.2 MJ/day diet consisting of NUPO® protein nutrition powder (33) (1.6 MJ/day) and free additional choice of food (2.6 MJ/day) for 24 weeks.
The patients were weighed on a decimal scale by dietitians at each visit. A Seca electronic scale (model 707) was used. The weighing limit was 200 kg, with 100 g graduations. The scale was calibrated every week.
The statistical analysis of weight loss was based on the logarithm of the initial body weight minus logarithm of the body weight at the actual visit.
As the data was logarithmically transformed as expressed above, a negative value corresponds to a supra-additive effect. Nil corresponds to additive effect and a positive value corresponds to a sub-additive effect.

Data set [2] in a line: adverse drug reactions in obese patients, 24 weeks (Example 5). The text has this: 14 days after discontinuation of the treatment, a psychiatrist recorded any inconveniences the patient might have had during this period and physical and psychological symptoms were registered.
A short description of data set [3]: blood pressure and heart rate in obese patients, 24 weeks (Example 5). Conditions: week 24. As to the method:
Blood pressure was measured with a Trimline Sphygmomanometer (PyMaH) by the investigator every 4 weeks. After at least 10 minutes rest, the measurements were carried out in the right arm of the patient a.m. Riva-Rocci with the patient being positioned in a sitting position. A cuff of 14 to 16 cm width was employed. […] The diastolic blood pressure was determined at the manometer pressure when the Korotkoff sound quality changes from tapping to muffled.
The heart rate was determined by palpation of the peripheral heart rate in the right radial artery.
The mean difference of blood pressure, heart rate and laboratory data from the initial values (week 0) at week 12 and at week 24 was compared to initial values for each treatment group by Students' one sample t-test (SAS). Comparison of the treatment groups at a particular visit was done by one-way analysis of variance (SAS.GLM). The difference from initial values was used in order to prevent chance events influencing the results. Patients with high values, for instance, who dropped out would thus influence the mean value at the next control, without a real difference being present.

The nature of data set [4]: safety evaluation in healthy volunteers: side effects, blood pressure, heart rate (Example 2). The following applies: 400 mg caffeine. How it is done:
Arterial blood pressure was measured in the right arm by a sphygmomanometer a.m. Riva-Rocci, and heart rate was determined by palpation of the peripheral heart rate in the ipsilateral radial artery. These measurements were performed after each sampling of blood.
A "Trimline" apparatus manufactured by PyMaH (Copenhagen) was used to measure the arterial blood pressure. A cuff 12-14 cm in width was employed. […] The diastolic blood pressure was determined as the manometer pressure when the Korotkoff sound quality changes from tapping to muffled.
At the end of each study comprising oral administration of the actual test substance, subjective feelings of side-effects were assessed by questioning the experimental subjects.

Regarding `Cn1c(=O)c2c(ncn2C)n(C)c1=O` [Caffeine, caffeine], in data set [1] (24 weeks), the “Average weight loss of the whole group” value worked out at 11.7 kg. Further, in data set [1] (24 weeks, excluded from analysis), the “Weight loss of one strongly deviant patient” value is recorded as 42.6 kg. In addition, the Relative body weight in data set [1] (week 4, 1 tablet 3 times daily, 4.2 MJ/day diet) was 95.5%. In data set [1] (week 8), this molecule gave a Relative body weight of 93.0%. Besides, the Relative body weight in data set [1] (week 12) is given as 90.4%. Also, the Relative body weight in data set [1] (week 16) amounted to 89.3%. The Relative body weight in data set [1] (week 20) is reported as 88.0%. The molecule further displayed a Relative body weight in data set [1] (week 24) of 87.6%. For the same molecule, in data set [2] (24 weeks), the “Patients complaining of adverse drug reactions” value is 16 patients and the “Patients withdrawn due to adverse drug reactions” value amounted to 2. For the same molecule, the “adverse reactions / withdrawal symptoms (in words)” value in data set [2] (human, in vivo) is listed as “Headache was reported by 27 patients, especially patients from the caffeine group”. Moreover, in data set [3], the “Average diastolic blood pressure decrease” value turned out to be 8.9 mmHg; the “Average diastolic blood pressure decrease, % of initial value” amounted to 11.0%; the “Average systolic blood pressure decrease” value is listed as 9.3 mmHg; the “Average systolic blood pressure decrease, % of initial value” was determined as 7.3%. In addition, in data set [3] (negative = increase), the “Average heart rate decrease” value is 5.7 BPM and the “Average heart rate decrease, % of initial value” is 7.3%. In addition, the “side effects (in words)” value in data set [4] is “The incidence of side effects after administration of the active compounds and placebo, respectively, was not significant, except for caffeine 400 mg (p<0.01)”.
